# Test results from patent publication US8686001B2, “Medicament for treating glaucoma comprising as an active ingredient cyclodextrin-clathrate compound of cilostazol” (Otsuka Pharmaceutical Co., Ltd., priority 2007, dated 2014).
# How the values were obtained:
# [1] = Dissolution experiment of cilostazol nano (nano-CLZ) in HP-β-CD, dissolving method (1) vs (2); type: physicochemical
# Protocol: CLZ and an excipient were mixed in a ratio of about 80%:20% to give a nano-CLZ powder. To a nano-CLZ suspension (0.5% CLZ suspension: which was prepared by suspending 120 mg of the nano-CLZ powder in 20 mL of purified water), HP-β-CD powder was added and the mixture was dissolved so that the final concentration of HP-β-CD should be 5-20% (dissolving method (1)); while 120 mg of the nano-CLZ powder was added to a HP-β-CD solution (which was prepared by dissolving HP-β-CD in purified water so that the final concentration of HP-β-CD should be 5-20%), and the mixture was dissolved (the final concentration of CLZ is 0.5%) (dissolving method (2)). Both the above solutions were stirred at 25° C. for 24 hours under the shade, then filtrated with membrane filter (pore size: 0.2 μm), and compared about the solubility of the solutions.
# Actually, it needed 30 minutes' stirring for the solution derived from dissolving method (1) to reach the state of the dissolution curve shown in FIG. 2. […] (The above concentrations are shown as weight/volume %.)
# [2] = Comparative experiment of manufacturing method: solubility of cilostazol in HP-β-CD, dissolving method (1) vs (2); type: physicochemical
# Protocol: To cilostazol suspension (0.5%, suspended in physiological saline) was added HP-β-CD powder so that the final concentration of the HP-β-CD should be 5-20%, and the mixture was completely dissolved (the procedure is termed as “dissolving method (1)”). On the contrary, to HP-β-CD solution (5-20%, dissolved in physiological saline) was added cilostazol powder (final concentration: 0.5%), and the mixture was completely dissolved (the procedure is termed as “dissolving method (2)”). Both the above solutions were stirred at 25° C. for 24 hours under the shade, then filtrated with membrane filter (pore size: 0.2 μm), and compared about the solubility of the solutions. […] Actually, it needed 10 minutes' stirring for the solution derived from dissolving method (1) to reach the state of the dissolution curve shown in FIG. 1. […] (The above concentrations are shown as weight/volume %.)
compound,measurement,setting,value
"O=C1CCc2cc(OCCCCc3nnnn3C3CCCCC3)ccc2N1 [cilostazol, 6-[4-(1-cyclohexyl-1H-tetrazol-5-yl)butoxy]-3,4-dihydrocarbostyril]","solubility of cilostazol, dissolving method (1) compared with dissolving method (2)","[1]; nano-CLZ powder, 0.5% CLZ, 5-20% HP-β-CD in purified water, stirred 25° C. 24 hours under the shade, 0.2 μm filtrate, FIG. 2",tended to increase more
same,stirring needed to reach the state of the dissolution curve,"[1]; nano-CLZ, dissolving method (1), FIG. 2",30 min
same,solubility after 30 minutes stirring relative to the solubility shown in FIG. 2,"[1]; nano-CLZ, dissolving method (2)",half or less
same,"solubility of cilostazol, dissolving method (1) compared with dissolving method (2)","[2]; 0.5% cilostazol, 5-20% HP-β-CD in physiological saline, stirred 25° C. 24 hours under the shade, 0.2 μm filtrate, FIG. 1",tended to increase more
same,stirring needed to reach the state of the dissolution curve,"[2]; dissolving method (1): HP-β-CD powder added to cilostazol suspension, FIG. 1",10 min
same,solubility after 10 minutes stirring relative to the solubility shown in FIG. 1,[2]; dissolving method (2): cilostazol powder added to HP-β-CD solution,one fifth or less
